This note sets out measurements from ChEMBL document CHEMBL5137051 (Eur J Med Chem, 2022).

The source made the active and inactive calls. The rule behind the calls is not given here. Where only a bound is given, the exact number is not on record here.

In general, IC50 refers to the point on the concentration scale where inhibition reaches its midpoint. By inhibition is commonly meant the share of the control response that was lost under treatment.

The target in assay [1] is Epidermal growth factor receptor (Homo sapiens, UniProt P00533). The assay can be described thus: Inhibition of wild type EGFR (unknown origin) by mobility shift assay.
Assay [2] deals with Epidermal growth factor receptor (Homo sapiens, UniProt P00533, L858R/T790M). The assay can be described thus: Inhibition of EGFR L858R/T790M mutant (unknown origin) by mobility shift assay.
Assay [3] deals with Epidermal growth factor receptor (Homo sapiens, UniProt P00533, C797S/L858R/T790M). The assay can be described thus: Inhibition of EGFR L858R/T790M/C797S mutant (unknown origin) by mobility shift assay.
Assay [4] addresses Hepatocyte growth factor receptor (Homo sapiens, UniProt P08581). The assay can be described thus: Inhibition of c-Met (unknown origin) by mobility shift assay.
In assay [5] the test system is A549. The assay can be described thus: Antiproliferative activity against human A549 cells assessed as cell viability after 72 hrs by MTT assay. It is filed as functional, cell-based. The conditions noted are these: A549, 72 h. On the technique in general: Tetrazolium assays rely on reduction of a dye to a coloured formazan, in cell work by metabolically active cells.

The test system of assay [6] is NCI-H1975. The assay can be described thus: Antiproliferative activity against human H1975 cells assessed as cell viability after 72 hrs by MTT assay. It is filed as functional, cell-based. The conditions noted are these: NCI-H1975, 72 h.
For assay [7], the system named is A549. The assay can be described thus: Induction of apoptosis in human A549 cells assessed as cell shrinkage after 48 hrs by AO/EB staining based fluorescent microscopic analysis. It counts as functional. The conditions noted are these: dose 0.1-10 µM, DDE = dose-dependent effect.
In assay [8] the test system is A549. The assay is described as follows: Induction of apoptosis in human A549 cells assessed as chromatin condensation after 48 hrs by AO/EB staining based fluorescent microscopic analysis. It is filed as functional, cell-based. The conditions noted are these: dose 0.1-10 µM, DDE = dose-dependent effect.
Assay [9] relates to NCI-H1975. The assay is described as follows: Induction of apoptosis in human H1975 cells assessed as cell shrinkage after 48 hrs by AO/EB staining based fluorescent microscopic analysis. It is filed as functional. The conditions noted are these: dose 0.1-10 µM, DDE = dose-dependent effect.
Assay [10] relates to NCI-H1975. The assay is described as follows: Induction of apoptosis in human H1975 cells assessed as chromatin condensation after 48 hrs by AO/EB staining based fluorescent microscopic analysis. It is filed as functional, cell-based. The conditions noted are these: dose 0.1-10 µM, DDE = dose-dependent effect.
The test system of assay [11] is A549. The assay can be described thus: Inhibition of cell migration of human A549 cells at 0.1 to 1 uM after 24 hrs by scratch wound healing assay. It counts as functional, cell-based. The conditions noted are these: dose 0.1-1 µM.
The test system of assay [12] is NCI-H1975. The assay is described as follows: Inhibition of cell migration of human H1975 cells at 0.1 to 1 uM after 24 hrs by scratch wound healing assay. It is filed as functional, cell-based. The conditions noted are these: dose 0.1-1 µM.
For assay [13], the system named is NCI-H1975. The assay can be described thus: Induction of cell cycle arrest in human H1975 cells assessed as number of cells at S phase at 1.3 uM after 24 hrs by flow cytometry (reference value: 25.41%). It counts as functional.
Assay [14] concerns NCI-H1975. The assay is described as follows: Induction of cell cycle arrest in human H1975 cells assessed as number of cells at S phase at 4 uM after 24 hrs by flow cytometry (reference value: 25.41%). It is filed as functional. For orientation: In flow cytometry, cells or beads pass a laser one at a time.
In assay [15] the test system is NCI-H1975. The assay is described as follows: Induction of cell cycle arrest in human H1975 cells assessed as number of cells at S phase at 12 uM after 24 hrs by flow cytometry (reference value: 25.41%). It counts as functional.
Assay [16] deals with NCI-H1975. The assay can be described thus: Induction of cell cycle arrest in human H1975 cells assessed as number of cells at G2/M phase at 1.3 uM after 24 hrs by flow cytometry (reference value: 31.41%). It counts as functional.
Assay [17] concerns NCI-H1975. The assay is described as follows: Induction of cell cycle arrest in human H1975 cells assessed as number of cells at G2/M phase at 4 uM after 24 hrs by flow cytometry (reference value: 31.41%). It counts as functional.
Assay [18] deals with NCI-H1975. The assay is described as follows: Induction of cell cycle arrest in human H1975 cells assessed as number of cells at G2/M phase at 12 uM after 24 hrs by flow cytometry (reference value: 31.41%). It is filed as functional.
Assay [19] concerns NCI-H1975. The assay can be described thus: Induction of cell cycle arrest in human H1975 cells assessed as number of cells at G1/G0 phase at 1.3 uM after 24 hrs by flow cytometry (reference value: 43.18%). It counts as functional.
In assay [20] the test system is NCI-H1975. The assay is described as follows: Induction of cell cycle arrest in human H1975 cells assessed as number of cells at G1/G0 phase at 4 uM after 24 hrs by flow cytometry (reference value: 43.18%). It is filed as functional.
Assay [21] has as its system NCI-H1975. The assay is described as follows: Induction of cell cycle arrest in human H1975 cells assessed as number of cells at G1/G0 phase at 12 uM after 24 hrs by flow cytometry (reference value: 43.18%). It is filed as functional.
For assay [22], the system named is Epidermal growth factor receptor (Homo sapiens), P00533 [L858R,T790M,C797S]. The conditions noted are these: dose 300.0 nM.
Epidermal growth factor receptor (Homo sapiens), P00533 [L858R,T790M,C797S], sequence (P00533 whole entry T790M/C797S/L858R): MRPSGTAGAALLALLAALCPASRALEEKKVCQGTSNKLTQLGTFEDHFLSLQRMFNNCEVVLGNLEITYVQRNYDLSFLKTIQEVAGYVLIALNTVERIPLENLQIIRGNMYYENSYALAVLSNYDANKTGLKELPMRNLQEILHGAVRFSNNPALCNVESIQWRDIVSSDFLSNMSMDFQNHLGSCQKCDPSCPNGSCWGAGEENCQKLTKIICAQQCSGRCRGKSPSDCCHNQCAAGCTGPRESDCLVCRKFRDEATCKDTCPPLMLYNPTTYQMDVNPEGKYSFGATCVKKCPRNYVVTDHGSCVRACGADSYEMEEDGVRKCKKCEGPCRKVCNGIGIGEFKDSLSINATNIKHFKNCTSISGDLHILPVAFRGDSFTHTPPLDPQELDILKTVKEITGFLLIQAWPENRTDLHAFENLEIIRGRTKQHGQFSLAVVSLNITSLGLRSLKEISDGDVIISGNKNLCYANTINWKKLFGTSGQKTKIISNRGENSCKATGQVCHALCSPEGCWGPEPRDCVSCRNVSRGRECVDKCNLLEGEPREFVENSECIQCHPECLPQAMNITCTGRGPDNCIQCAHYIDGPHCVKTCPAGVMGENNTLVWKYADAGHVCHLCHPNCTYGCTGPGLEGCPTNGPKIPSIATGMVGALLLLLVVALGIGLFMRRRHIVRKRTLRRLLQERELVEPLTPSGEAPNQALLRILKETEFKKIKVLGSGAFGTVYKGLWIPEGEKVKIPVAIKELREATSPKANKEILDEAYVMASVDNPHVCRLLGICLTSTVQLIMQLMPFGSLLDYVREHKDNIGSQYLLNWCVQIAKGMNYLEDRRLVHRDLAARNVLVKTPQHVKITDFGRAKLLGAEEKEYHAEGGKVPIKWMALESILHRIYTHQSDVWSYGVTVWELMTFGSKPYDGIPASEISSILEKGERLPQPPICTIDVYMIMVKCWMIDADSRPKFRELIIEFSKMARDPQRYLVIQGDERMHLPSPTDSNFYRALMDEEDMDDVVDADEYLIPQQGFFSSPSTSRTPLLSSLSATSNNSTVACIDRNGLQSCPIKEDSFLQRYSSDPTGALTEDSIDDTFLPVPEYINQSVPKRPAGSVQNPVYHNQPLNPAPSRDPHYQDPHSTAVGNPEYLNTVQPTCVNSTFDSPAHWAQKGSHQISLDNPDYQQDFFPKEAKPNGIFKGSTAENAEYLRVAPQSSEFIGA

Epidermal growth factor receptor (Homo sapiens, UniProt P00533, L858R/T790M), sequence (P00533 25-1210 T790M/L858R limits assumed): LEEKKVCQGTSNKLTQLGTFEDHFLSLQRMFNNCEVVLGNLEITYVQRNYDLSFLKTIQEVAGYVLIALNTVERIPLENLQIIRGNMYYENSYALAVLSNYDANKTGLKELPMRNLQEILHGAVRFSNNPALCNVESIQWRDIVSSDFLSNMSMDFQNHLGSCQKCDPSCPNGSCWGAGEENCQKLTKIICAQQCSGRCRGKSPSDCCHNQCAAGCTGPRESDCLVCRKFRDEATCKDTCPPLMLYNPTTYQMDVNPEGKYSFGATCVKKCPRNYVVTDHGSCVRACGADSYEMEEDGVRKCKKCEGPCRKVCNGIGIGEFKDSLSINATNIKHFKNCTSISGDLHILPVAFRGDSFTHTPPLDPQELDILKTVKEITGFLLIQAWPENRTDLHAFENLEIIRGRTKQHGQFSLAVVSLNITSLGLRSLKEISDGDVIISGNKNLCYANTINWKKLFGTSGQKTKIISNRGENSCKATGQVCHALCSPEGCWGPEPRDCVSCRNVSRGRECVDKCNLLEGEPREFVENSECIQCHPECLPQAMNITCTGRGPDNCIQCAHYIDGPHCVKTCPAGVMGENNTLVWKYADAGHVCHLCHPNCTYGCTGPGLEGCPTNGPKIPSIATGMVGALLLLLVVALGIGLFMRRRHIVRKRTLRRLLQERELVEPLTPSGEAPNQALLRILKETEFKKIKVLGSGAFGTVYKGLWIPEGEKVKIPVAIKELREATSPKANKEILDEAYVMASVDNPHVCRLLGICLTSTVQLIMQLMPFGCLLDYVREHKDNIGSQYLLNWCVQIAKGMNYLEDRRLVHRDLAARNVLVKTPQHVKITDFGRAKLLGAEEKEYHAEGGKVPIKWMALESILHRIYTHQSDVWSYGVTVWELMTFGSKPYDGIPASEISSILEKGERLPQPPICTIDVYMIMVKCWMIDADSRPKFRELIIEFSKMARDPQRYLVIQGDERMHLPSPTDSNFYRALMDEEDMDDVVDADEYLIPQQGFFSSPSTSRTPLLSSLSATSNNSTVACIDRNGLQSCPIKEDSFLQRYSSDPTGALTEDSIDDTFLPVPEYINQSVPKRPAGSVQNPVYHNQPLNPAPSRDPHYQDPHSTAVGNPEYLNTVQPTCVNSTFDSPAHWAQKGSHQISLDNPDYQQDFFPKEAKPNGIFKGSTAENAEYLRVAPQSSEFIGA
Epidermal growth factor receptor (Homo sapiens, UniProt P00533, C797S/L858R/T790M), sequence (P00533 25-1210 T790M/C797S/L858R limits assumed): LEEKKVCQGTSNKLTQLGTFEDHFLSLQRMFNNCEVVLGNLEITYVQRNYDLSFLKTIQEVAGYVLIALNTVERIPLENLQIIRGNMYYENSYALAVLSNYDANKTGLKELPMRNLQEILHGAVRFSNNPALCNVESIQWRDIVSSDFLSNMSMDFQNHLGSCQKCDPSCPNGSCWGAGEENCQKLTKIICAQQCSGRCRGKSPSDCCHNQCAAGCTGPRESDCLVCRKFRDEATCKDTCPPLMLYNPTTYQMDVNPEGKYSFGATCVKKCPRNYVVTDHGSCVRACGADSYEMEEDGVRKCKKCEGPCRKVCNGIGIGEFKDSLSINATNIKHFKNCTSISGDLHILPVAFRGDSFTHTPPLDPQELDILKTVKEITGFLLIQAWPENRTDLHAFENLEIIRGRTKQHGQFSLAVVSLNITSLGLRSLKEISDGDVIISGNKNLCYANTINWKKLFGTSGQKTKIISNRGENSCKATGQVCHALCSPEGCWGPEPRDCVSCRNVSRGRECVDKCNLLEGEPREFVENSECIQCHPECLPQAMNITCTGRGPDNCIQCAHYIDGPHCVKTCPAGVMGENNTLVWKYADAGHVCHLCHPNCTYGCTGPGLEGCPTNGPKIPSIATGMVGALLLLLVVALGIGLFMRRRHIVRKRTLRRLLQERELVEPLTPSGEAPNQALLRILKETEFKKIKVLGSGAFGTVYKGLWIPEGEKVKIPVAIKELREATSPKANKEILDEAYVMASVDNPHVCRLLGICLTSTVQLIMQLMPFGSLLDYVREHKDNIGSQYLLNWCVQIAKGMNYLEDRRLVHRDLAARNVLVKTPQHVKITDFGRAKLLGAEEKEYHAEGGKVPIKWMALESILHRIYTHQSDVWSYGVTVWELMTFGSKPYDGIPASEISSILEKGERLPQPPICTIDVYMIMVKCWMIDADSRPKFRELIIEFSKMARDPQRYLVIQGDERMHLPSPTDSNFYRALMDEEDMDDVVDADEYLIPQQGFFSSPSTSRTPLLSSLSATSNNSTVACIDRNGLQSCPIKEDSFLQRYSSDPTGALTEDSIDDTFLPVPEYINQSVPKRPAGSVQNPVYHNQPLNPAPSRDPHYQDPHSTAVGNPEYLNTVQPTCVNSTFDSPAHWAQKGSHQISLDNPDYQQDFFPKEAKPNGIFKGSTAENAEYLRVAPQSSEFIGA
Hepatocyte growth factor receptor, sequence (P08581 whole entry): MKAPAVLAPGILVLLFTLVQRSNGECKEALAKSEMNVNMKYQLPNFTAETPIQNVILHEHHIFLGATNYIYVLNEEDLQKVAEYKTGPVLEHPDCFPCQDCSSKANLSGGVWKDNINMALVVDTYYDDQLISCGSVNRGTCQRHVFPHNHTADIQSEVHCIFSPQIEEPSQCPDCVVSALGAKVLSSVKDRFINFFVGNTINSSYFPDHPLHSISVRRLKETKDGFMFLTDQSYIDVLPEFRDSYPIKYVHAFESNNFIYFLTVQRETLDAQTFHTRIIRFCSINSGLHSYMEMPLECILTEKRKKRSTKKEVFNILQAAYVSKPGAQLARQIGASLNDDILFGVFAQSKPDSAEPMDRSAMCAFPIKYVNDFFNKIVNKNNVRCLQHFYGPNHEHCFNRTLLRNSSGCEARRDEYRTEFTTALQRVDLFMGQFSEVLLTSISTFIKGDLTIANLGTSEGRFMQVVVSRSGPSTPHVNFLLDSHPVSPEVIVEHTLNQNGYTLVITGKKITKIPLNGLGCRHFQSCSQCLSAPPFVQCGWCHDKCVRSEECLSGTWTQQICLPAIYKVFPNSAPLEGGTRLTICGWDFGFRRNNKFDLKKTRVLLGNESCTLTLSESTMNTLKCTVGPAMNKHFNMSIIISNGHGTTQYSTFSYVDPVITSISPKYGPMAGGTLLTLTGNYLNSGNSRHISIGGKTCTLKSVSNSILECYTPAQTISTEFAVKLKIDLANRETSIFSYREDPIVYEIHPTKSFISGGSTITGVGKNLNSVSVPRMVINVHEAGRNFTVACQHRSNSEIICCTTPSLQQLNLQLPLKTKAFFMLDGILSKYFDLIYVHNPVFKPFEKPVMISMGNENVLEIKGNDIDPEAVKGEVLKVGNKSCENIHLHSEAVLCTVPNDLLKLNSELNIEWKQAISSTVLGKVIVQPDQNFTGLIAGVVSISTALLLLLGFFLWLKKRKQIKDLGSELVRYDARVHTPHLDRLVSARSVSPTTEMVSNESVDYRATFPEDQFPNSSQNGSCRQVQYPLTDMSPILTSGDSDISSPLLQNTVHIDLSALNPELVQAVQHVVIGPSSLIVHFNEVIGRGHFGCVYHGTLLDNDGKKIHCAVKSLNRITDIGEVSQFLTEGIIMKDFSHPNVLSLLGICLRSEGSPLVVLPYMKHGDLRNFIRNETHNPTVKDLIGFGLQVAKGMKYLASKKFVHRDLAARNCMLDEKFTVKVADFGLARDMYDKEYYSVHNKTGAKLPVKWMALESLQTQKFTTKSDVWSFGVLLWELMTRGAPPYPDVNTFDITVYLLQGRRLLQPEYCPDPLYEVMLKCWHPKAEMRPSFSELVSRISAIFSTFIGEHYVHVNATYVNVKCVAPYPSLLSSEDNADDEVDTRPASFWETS

For the compound `COc1cc(N(C)CCN(C)C)c(NC(=O)c2ccncn2)cc1Nc1nccc(-c2cn(C)c3ccccc23)n1`, the IC50 is 29 nM in assay [1]; 10 nM in [2]; 242 nM in assay [3]; more than 1000 nM in assay [4]; 2530 nM in the assay with A549 [5]; 1560 nM in the assay on NCI-H1975 [6]. Further, the Activity result was “Dde” in the assay on A549 [7]; “Dde” with A549 [8]; “Dde” in the assay with NCI-H1975 [9]; “Dde” with NCI-H1975 [10]; 22.67% with NCI-H1975 [13]; 18.36% in the assay on NCI-H1975 [14]. The Activity in the assay on NCI-H1975 [15] is listed as 12.55%; with NCI-H1975 [16] it was 31.18%; with NCI-H1975 [17], 31.02%; in the assay with NCI-H1975 [18], 30.13%; in the assay with NCI-H1975 [19] it was 46.15%; with NCI-H1975 [20], 50.62%. The Activity in the assay with NCI-H1975 [21] was found to be 57.32%. The inhibition entry in the assay on A549 [11] and in the assay with NCI-H1975 [12] was “Active” each time. Besides, the inhibition in assay [22] turned out to be 60.8%.
